The subject of the assay is outpatients with MDD. The experiment in a line: Randomized double-blind 4-week trial, response by 17-item Hamilton Rating Scale for Depression (HAMD17). The class given is in vivo, human. The source says: The 75 patients in this report were a subset of the 165 patients who entered a randomized, double-blind, flexible dosing, placebo-controlled study performed at 12 clinical sites. […] Subjects selected for this study were those with serum samples and HAMD17 scores available at baseline and 1 week and at 4 weeks (+/−1 week) after treatment. Finally, the subset of participants in this study largely overlaps with those used in our previous study.
Study participants were outpatients, 18–65 years of age, from various clinical sites across the United States. […] A complete description of the inclusion and exclusion used in this study can be found in Table S1. The study protocol was developed in accordance with the principles of the Declaration of Helsinki. All patients provided written informed consent. The study was sponsored and monitored by Pfizer, Inc. Each site's institutional review board approved and oversaw the study. The primary outcome measure was the HAMD17, used to assess depressive symptom severity. Measures were gathered at baseline, and weeks 1 and 4 of treatment at the patient's visits. Serum samples were collected using standard protocol at baseline, week 1 and week 4 of treatment at the clinic visits. Whole blood was collected in serum collection tubes and inverted 5–8 times. Serum samples were allowed to clot at room temperature for 60 minutes and then centrifuged at 1,300×g for 15 minutes. Following centrifugation supernatant was frozen at −80°C until analysis.
Signatures of response to sertraline and placebo were identified by using paired t-tests to compare week 4 metabolite levels to baseline metabolite levels in the responders and non-responders to therapy. […] These analyses were also performed to evaluate changes in ratios of individual metabolites within (e.g., 5-HT/5-HTP) and between branches of tryptophan pathway (e.g., KYN/MEL).

For the compound `CN[C@H]1CC[C@@H](c2ccc(Cl)c(Cl)c2)c2ccccc21` [Sertraline, sertraline], the “APC, average percent change in HAMD17 score” value (Female patients) is on record as “Female: APC= -55%” and the “APC, average percent change in HAMD17 score” value (Non-White patients) was “Non-White: APC= -52%”. Further, where the note is “after four weeks, 21/35 patients, 50-150 mg/day”, the “response rate (responders: ≥50% reduction in HAMD17 scores)” value is on record as 60%.

The values above are taken from publication PMC3714282, “Pharmacometabolomics of Response to Sertraline and to Placebo in Major Depressive Disorder – Possible Role for Methoxyindole Pathway” (PLoS ONE, 2013).
